Target: Transient receptor potential cation channel subfamily V member 1 (Homo sapiens, UniProt Q8NER1)
Test: Ca2+ Influx Functional Assay for the Determination of in Vitro Activity.
Details: pH 7.4; 22 °C

Transient receptor potential cation channel subfamily V member 1, sequence (Q8NER1 whole entry): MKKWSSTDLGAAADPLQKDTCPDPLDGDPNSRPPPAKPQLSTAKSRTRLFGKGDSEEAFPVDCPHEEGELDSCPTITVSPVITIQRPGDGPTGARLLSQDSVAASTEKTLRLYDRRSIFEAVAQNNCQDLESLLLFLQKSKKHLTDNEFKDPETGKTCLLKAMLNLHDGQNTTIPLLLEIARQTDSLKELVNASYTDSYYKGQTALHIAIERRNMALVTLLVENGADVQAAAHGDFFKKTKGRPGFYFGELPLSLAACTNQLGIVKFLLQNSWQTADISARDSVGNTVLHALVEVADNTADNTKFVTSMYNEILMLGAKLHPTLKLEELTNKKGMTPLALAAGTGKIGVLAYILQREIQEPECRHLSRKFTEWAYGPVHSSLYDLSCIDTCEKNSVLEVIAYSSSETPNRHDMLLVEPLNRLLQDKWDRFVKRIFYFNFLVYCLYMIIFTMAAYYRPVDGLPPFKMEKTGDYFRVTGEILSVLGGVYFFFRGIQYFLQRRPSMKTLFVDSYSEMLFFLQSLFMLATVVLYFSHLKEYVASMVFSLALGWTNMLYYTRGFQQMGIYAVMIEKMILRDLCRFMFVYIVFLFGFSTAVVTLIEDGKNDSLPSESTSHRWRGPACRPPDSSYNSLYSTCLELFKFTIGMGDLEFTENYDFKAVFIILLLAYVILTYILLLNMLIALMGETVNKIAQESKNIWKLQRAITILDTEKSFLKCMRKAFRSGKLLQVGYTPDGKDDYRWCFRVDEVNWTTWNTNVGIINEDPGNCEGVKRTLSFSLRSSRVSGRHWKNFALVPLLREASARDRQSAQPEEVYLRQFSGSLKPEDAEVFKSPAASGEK

| Compound | EC50 |
| --- | --- |
| O=C(NCc1ccc(Cl)c(Cl)c1)Nc1cccc2[nH]ncc12 [1-[(3,4-dichlorophenyl)methyl]-3-1H-indazol-4-ylurea] | 21 nM |
| O=C(NCc1ccc(Cl)c(Cl)c1)Nc1cccc2[nH]ccc12 [1-[(3,4-dichlorophenyl)methyl]-3-1H-indol-4-ylurea] | 220 nM |
| Cn1ncc2c(NC(=O)NCc3ccc(Cl)c(Cl)c3)cccc21 [1-[(3,4-dichlorophenyl)methyl]-3-(1-methyl-1H-indazol-4-yl)urea] | 120 nM |
| O=C(NCc1cccc(F)c1)Nc1cccc2[nH]ccc12 [1-[(3-fluorophenyl)methyl]-3-1H-indol-4-ylurea] | 2700 nM |
| O=C(NCc1ccc(Br)cc1)Nc1cccc2[nH]ncc12 [1-[(4-bromophenyl)methyl]-3-1H-indazol-4-ylurea] | 13 nM |
| O=C(NCc1ccc(Br)cc1)Nc1ccc2[nH]ncc2c1 [1-[(4-bromophenyl)methyl]-3-1H-indazol-5-ylurea] | 3540 nM |
| O=C(NCc1ccc(Br)cc1)Nc1cccc2[nH]ccc12 [1-[(4-bromophenyl)methyl]-3-1H-indol-4-ylurea] | 110 nM |
| O=C(NCc1ccc(Br)cc1)Nc1ccc2[nH]ccc2c1 [1-[(4-bromophenyl)methyl]-3-1H-indol-5-ylurea] | 5850 nM |
| O=C(NCc1ccc(Br)cc1)Nc1ccc2cc[nH]c2c1 [1-[(4-bromophenyl)methyl]-3-1H-indol-6-ylurea] | 3010 nM |
| O=C(NCc1ccc(Br)cc1)Nc1cccc2cc[nH]c12 [1-[(4-bromophenyl)methyl]-3-1H-indol-7-ylurea] | 180 nM |
| Cn1ncc2c(NC(=O)NCc3ccc(Br)cc3)cccc21 [1-[(4-bromophenyl)methyl]-3-(1-methyl-1H-indazol-4-yl)urea] | 76 nM |
| Cc1[nH]c2cccc(NC(=O)NCc3ccc(Br)cc3)c2c1C [1-[(4-bromophenyl)methyl]-3-(2,3-dimethyl-1H-indol-4-yl)urea] | 1470 nM |
| Cn1cc2c(NC(=O)NCc3ccc(Br)cc3)cccc2n1 [1-[(4-bromophenyl)methyl]-3-(2-methyl-2H-indazol-4-yl)urea] | 1390 nM |
| O=C(NCc1ccc(Cl)cc1)Nc1cccc2[nH]ccc12 [1-[(4-chlorophenyl)methyl]-3-1H-indol-4-ylurea] | 150 nM |
| Cn1ncc2c(NC(=O)NCc3ccc(Cl)cc3)cccc21 [1-[(4-chlorophenyl)methyl]-3-(1-methyl-1H-indazol-4-yl)urea] | 60 nM |
| O=C(NCc1ccc(F)cc1)Nc1cccc2[nH]ccc12 [1-[(4-fluorophenyl)methyl]-3-1H-indol-4-ylurea] | 2710 nM |
| Cn1ncc2c(NC(=O)NCc3ccc(F)cc3)cccc21 [1-[(4-fluorophenyl)methyl]-3-(1-methyl-1H-indazol-4-yl)urea] | 720 nM |
| O=C(NCc1ccc(C(F)(F)F)c(F)c1)Nc1cccc2[nH]ccc12 [1-{[3-fluoro-4-(trifluoromethyl)phenyl]methyl}-3-1H-indol-4-ylurea] | 40 nM |
| O=C(NCc1ccc(Cl)c(C(F)(F)F)c1)Nc1cccc2[nH]ccc12 [1-{[4-chloro-3-(trifluoromethyl)phenyl]methyl}-3-1H-indol-4-ylurea] | 70 nM |
| O=C(Cc1cccc2[nH]ncc12)NCc1ccc(C(F)(F)F)cc1 [2-(1H-indazol-4-yl)-N-{[4-(trifluoromethyl)phenyl]methyl}acetamide] | 10200 nM |
| O=C(Cc1cccc2[nH]ccc12)NCc1ccc(C(F)(F)F)cc1 [2-(1H-indol-4-yl)-N-{[4-(trifluoromethyl)phenyl]methyl}acetamide] | 520 nM |
| O=C(NCc1ccc(Br)cc1)Nc1cccc2nc[nH]c12 [3-1H-1,3-benzodiazol-4-yl-1-[(4-bromophenyl)methyl]urea] | 2470 nM |
| O=C(NCc1cccc(C(F)(F)F)c1)Nc1cccc2[nH]ncc12 [3-1H-indazol-4-yl-1-{[3-(trifluoromethyl)phenyl]methyl}urea] | 44 nM |
| O=C(NCc1ccc(OC(F)(F)F)cc1)Nc1cccc2[nH]ncc12 [3-1H-indazol-4-yl-1-{[4-(trifluoromethoxy)phenyl]methyl}urea] | 11 nM |
| O=C(NCc1ccc(C(F)(F)F)cc1)Nc1cccc2[nH]ncc12 [3-1H-indazol-4-yl-1-{[4-(trifluoromethyl)phenyl]methyl}urea] | 9 nM |
| O=C(NCc1ccc(OC(F)(F)F)cc1)Nc1cccc2[nH]ccc12 [3-1H-indol-4-yl-1-{[4-(trifluoromethoxy)phenyl]methyl}urea] | 80 nM |
| O=C(NCc1ccc(C(F)(F)F)cc1)Nc1cccc2[nH]ccc12 [3-1H-indol-4-yl-1-{[4-(trifluoromethyl)phenyl]methyl}urea] | 60 nM |
| Cn1ncc2c(NC(=O)NCc3ccc(OC(F)(F)F)cc3)cccc21 [3-(1-methyl-1H-indazol-4-yl)-1-{[4-(trifluoromethoxy)phenyl]methyl}urea] | 35 nM |
| O=C(Nc1cccc2[nH]ccc12)OCc1ccc(C(F)(F)F)cc1 [[4-(trifluoromethyl)phenyl]methyl N-(1H-indol-4-yl)carbamate] | 940 nM |

— BindingDB's records for doi:10.1016/j.bmc.2006.03.027 (Abbott Laboratories, 2006)
